Data: patent publication US12144896B2, “Drug delivery system” (INSERM (INSTITUT NATIONAL DE LA SANTÉ ET DE LA RECHERCHE …, priority 2018, dated 2024)
“And” between values parts separate entries of the source, which are not always exact repeats. Equal entries are not always repeated.

Tests used:
HT-29 cells = experiment: MTS cell viability test on HT-29 cells; type: cell-based, Human; conditions: HT-29, 24 h incubation at 37° C., 0-200 μM
Procedure: (§1) Human lung alveolar carcinoma A549 cells, provided by Prof. L. Migliore, University of Pisa, were grown in Ham's F12 medium supplemented with 10% Fetal Bovine Serum (FBS), 1 mM Gln, and antibiotics. Human colorectal adenocarcinoma HT-29 cells, provided by Prof. P. Petronini, University of Parma, were grown in DMEM High (glucose 4.5 g/1) supplemented with 10% FBS, 2 mM Gln and antibiotics. Cells were incubated at 37° C. at 5% CO2; after thawing, all cells were used for less than ten passages.
(§2) 3.5×10^3 B6KPC3 and A549 cells and 7.5×10^3 HT-29 cells were seeded into 96-well plates. […] After 24 h, cell viability was evaluated through MTS Cell Proliferation Colorimetric Assay Kit (Novus Biologicals, Abingdon, UK). […] In preliminary experiments the time of exposure to MTS (1 h for HT-29 and 3 h for A549 cells) was determined according to the metabolism of each cell type. Absorbance was measured at 492 nm with a microplate reader (EnSpire® Multimode Plate Reader, Perkin Elmer, Boston, Mass., USA).
(§3) Cell viability (CV) percentage was evaluated through the following formula: CV (%)=(Absorbance(treated wells))/(Absorbance(control wells))×100 with Absorbance (control wells) considered the absorbance of untreated cells incubated in medium without drugs. […]
(§4) Oxaliplatin, DACHPt, and Blank nanoparticles are thus used as controls. Viability was then evaluated with the MTS assay (see Material and Methods). […]

A549 cells = experiment: MTS cell viability test on A549 cells; type: cell-based, Human; conditions: A549, 24 h incubation at 37° C., 0-200 μM
Procedure: as §1, §2, §3, §4

[1] = test system: multicellular HT116 spheroids; experiment: Multicellular tumor spheroid (MCTS) volume follow-up; type: cell-based
From the text: Multi cellular tumor spheroids (MCTS) were formed according to a previous published method [Virgone-Carlotta A, Lemasson M, Mertani H C, et al. In-depth phenotypic characterization of multicellular tumor spheroids: Effects of 5-Fluorouracil. PLOS ONE. 2017; 12(11):e0188100. doi: 10.1371/journal.pone.0188100]. Briefly, MCTS were formed using HTC-116 cell line in Ultra Low Attachment (ULA) 96 wells Round-Bottom plate (Greiner bio-one) to avoid cell-substrate attachment. The cells were trypsinized and were counted using a Malassez grid in order to obtain 2,400 cells per milliliter. This concentration of cells (i.e., 480 cells per well in a volume of 200 μL) was chosen in order to obtain a single spheroid per well, with a spheroid diameter at the end of the experimentation not exceeding 500 μm. The plate was centrifuged for 5 minutes at 1,200 g at room temperature to initiate the formation of spheroids. The plate was placed in the incubator under agitation at 37° C. and 5% CO2 during the whole experiment. At the end of the first day after seeding, 100 μL of culture medium was added to ensure proper 3D growth. […] The treatment was renewed during 3 days. Results are shown on FIGS. 4 to 6.
Blank NP were also used to assess nonspecific toxicity that could arise from the system. MCTS were monitored at day 0, 1, 2, 3, 4, and 7 day post treatment. Eight spheroids (n=8) were probed at each concentration (5, 25 and 50 μM). A ring of detaching cells appeared spontaneously after one day of treatment. The spheroids were transferred into new well plates to eliminate mechanically this uncohesive peripheral cell layer and to renew the drug and culture medium. Therefore, the reduction in volume monitored during treatment arose from a loss of viability as well as from a loss of cohesiveness.
We performed edge detection using a sobel threshold for each spheroid using the Image J software. The resulting binary images were fitted to an ellipse of major (LM) and minor (Lm) axes using the ImageJ “Analyse Particles” plugins. From this, a mean diameter was calculated, D=(LM+Lm)/2. The volume V was then determined assuming that the spheroids are spherical V=πD3/6. Results are shown on FIG. 7.
The volume of MCTS was evaluated from phase contrast microscopy images as a readout of cytotoxic effect. The data reported in FIGS. 4-6 represent normalized MCTS volume for different treatments with respect to the control volume (MCTS not treated). Three different drug concentrations were tested: 5, 25 and 50 μM.

[2] = Pharmacokinetics after IV bolus injection, two-compartment analysis of plasma Pt; conditions: mice, 35 μg Pt/mice
Procedure: At specific time points, 15, 30 min, 1, 1.5, 3, 5, 8 and 12 h post dose, 200 μl of blood was taken and separated from plasma. Pt content was detected using ICP/MS.
A first-order, two-compartment model with bolus administration, expressed in terms of CL and V was applied to fit the data, using 1/yhat^2 as weighting function.
Based on the profile obtained (FIGS. 3A and 3B), the data were analyzed using a two-compartmental model.

B6KPC3 cells = experiment: MTS cell viability test on B6KPC3 cells; type: cell-based; conditions: B6KPC3, 24 h incubation at 37° C., 0-200 μM
Procedure: 3.5×10^3 B6KPC3 and A549 cells and 7.5×10^3 HT-29 cells were seeded into 96-well plates. […] After 24 h, cell viability was evaluated through MTS Cell Proliferation Colorimetric Assay Kit (Novus Biologicals, Abingdon, UK). Briefly, medium was removed, and 100 μL of MTS solution diluted 1:10 in serum-free medium were added in each well. In preliminary experiments the time of exposure to MTS (1 h for HT-29 and 3 h for A549 cells) was determined according to the metabolism of each cell type. Absorbance was measured at 492 nm with a microplate reader (EnSpire® Multimode Plate Reader, Perkin Elmer, Boston, Mass., USA).
Cell viability (CV) percentage was evaluated through the following formula: CV (%)=(Absorbance(treated wells))/(Absorbance(control wells))×100 with Absorbance (control wells) considered the absorbance of untreated cells incubated in medium without drugs. G.3 Results for Viability Studies on HT-29, A549 and B6KPC3 Cells: MTS Test
Oxaliplatin, DACHPt, and Blank nanoparticles are thus used as controls. Viability was then evaluated with the MTS assay (see Material and Methods). Data were expressed as % of control (untreated cells). Data are means±SD of two experiments with 3 determinations each.

[3] = clinical studies, end of a 2-hr infusion; cited from earlier work

NC1CCCCC1N.[Pt+2] (stereo not shown) [DACHPt, di-aqua(1,2-diaminocyclohexane)platinum(II)]
IC50 (HT-29 cells): 39 µM

(R,R)-1,2-diaminocyclohexane(ethanedioato-O,O)platinum [Oxaliplatin]
IC50 (HT-29 cells): 74 µM
IC50 (A549 cells): 11 µM
IC50 (A549 cells; listed as oxaliplatin reference solution): 12 µM
size reduction (%) of spheroids compared to control spheroids at the same day ([1]; 5 μM, Day 0): −1.21%
size reduction (%) of spheroids compared to control spheroids at the same day ([1]; 5 μM, Day 1): 4.52%
size reduction (%) of spheroids compared to control spheroids at the same day ([1]; 5 μM, Day 2): 15.86%
size reduction (%) of spheroids compared to control spheroids at the same day ([1]; 5 μM, Day 3): 24.88%
size reduction (%) of spheroids compared to control spheroids at the same day ([1]; 5 μM, Day 4): 28.73%
size reduction (%) of spheroids compared to control spheroids at the same day ([1]; 25 μM, Day 0): 0.59%
size reduction (%) of spheroids compared to control spheroids at the same day ([1]; 25 μM, Day 1): 16.06%
size reduction (%) of spheroids compared to control spheroids at the same day ([1]; 25 μM, Day 2): 29.27%
size reduction (%) of spheroids compared to control spheroids at the same day ([1]; 25 μM, Day 3): 40.23%
size reduction (%) of spheroids compared to control spheroids at the same day ([1]; 25 μM, Day 4): 45.93%
size reduction (%) of spheroids compared to control spheroids at the same day ([1]; 25 μM, Day 7): 52.04%
size reduction (%) of spheroids compared to control spheroids at the same day ([1]; 50 μM, Day 0): 0.62%
size reduction (%) of spheroids compared to control spheroids at the same day ([1]; 50 μM, Day 1): 16.78%
size reduction (%) of spheroids compared to control spheroids at the same day ([1]; 50 μM, Day 2): 32.53%
size reduction (%) of spheroids compared to control spheroids at the same day ([1]; 50 μM, Day 3): 44.17%
size reduction (%) of spheroids compared to control spheroids at the same day ([1]; 50 μM, Day 4): 48.93%
size reduction (%) of spheroids compared to control spheroids at the same day ([1]; 50 μM, Day 7): 71.67%
appearance of treated spheroids on photographs ([1]; 50 μM, FIG. 7): few cells are still present and formed aggregates
AUMC [2]: 65.1 ± 23.8 hr*hr*mg/L
K12 (rate constant central to peripheral compartment) [2]: 4.14 ± 0.72 h⁻¹
K21 (rate constant peripheral to central compartment) [2]: 0.398 ± 0.054 h⁻¹
Q [2]: 0.060 ± 0.008 L/h
Vc [2]: 0.014 ± 0.004 L
Vp [2]: 0.15 ± 0.02 L
Vss [2]: 0.165 L
K21 (rate constant peripheral to central compartment) ([2]; listed as oxaliplatin): 0.398 h⁻¹
K12 (rate constant central to peripheral compartment) ([2]; listed as oxaliplatin solution): 4.14 h⁻¹
Vc ([2]; listed as oxaliplatin solution): 0.014 L
Vp ([2]; listed as oxaliplatin solution): 0.150 L
AUC ([2]; plasma): 3.76 mg·h/L
Alpha_HL (distribution half-life) ([2]; plasma): 8.1 min
CL ([2]; plasma clearance): 0.010 L/h
Beta_HL (elimination half-life) ([2]; plasma, listed as oxaliplatin solution): 13.6 h and 13 h
Cmax ([2]; time 0 hr): 2.48 mg/L
IC50 (B6KPC3 cells): 23 µM
administered platinum present in the systemic circulation [3]: 15%
